{"source": "patent US8357501B2", "about": "“Tissue protective erythropoietin receptor (NEPOR) and methods of use” (Molecular Health GmbH, priority 2007, dated 2013)", "key": {"[1]": {"tested_on": "EphB4 expression in the transiently transfected 293T cell line", "assay": "EphB4 knockdown by antisense ODN in transiently transfected cells", "type": "cell-based", "conditions": "cytosine at the CpG site methylated, compared with AS-10; data not shown"}, "[2]": {"conditions": "351 patients receiving radiotherapy; 3 times per week, from 10 to 14 days before and through radiation therapy; placebo 15%; cited from earlier work"}, "HeyA8-MDR cells": {"tested_on": "HeyA8-MDR cells", "assay": "EPH-B4 siRNA effect on tumor promoting effect of EPO in nude mice (FIG. 17)", "type": "in vivo", "conditions": "HeyA8 MDR i.p.", "description": "Female nude mice were injected i.p. with 1×10^6 HeyA8-MDR cells. Day eight following injection the cells were treated with control siRNA-DOPC, EPH-B4 siRNA-DOPC, EPO, or in EPO+ control or EPH-B4 siRNA-DOPC (10 per group). (50 U EPO given 3× week, 5 μg siRNA 2× week). Mice were sacrificed on day 25 and tumor weights were measured. Statistics were done using students T-test. B) Distribution of tumor weight per group.\nIn these experiments we sought to determine the response to erythropoietin (EPO) treatment in a panel of ovarian cancer cell lines. […] It was then necessary to determine protein expression of these receptors in the panel. […] We then categorized these expression changes particularly with regard to the EPOR and EPH-B4 to then analyze the response to EPO treatment. We analyzed their response to chemotherapy in conjunction with EPO. […] It was then necessary to analyze the activation of signaling pathways known to be activated by these receptors in response to EPO treatment. Three cell lines were starved for two hours to isolate their response to EPO. […] We then sought to determine a EPO dose that optimized its tumor promoting effect in vivo. Female nude mice were injected i.p. with HeyA8 MDR (positive for both EPOR and EPH-B4). […] Treatment continued until tumors became evident, the mice were then sacrificed and the tumor weight was determined. […]"}, "erythropoiesis": {"tested_on": "erythropoiesis", "conditions": "cited from earlier work"}, "tissue injury": {"tested_on": "tissue injury", "conditions": "wide variety of in vivo and in vitro models, cited from earlier work"}}, "note": "Like-named read-outs stand apart in the source and are kept apart here. [5mC] = 5-methylcytosine", "data": [{"substance": "AS-10M: antisense ODN AS-10 with the cytosine at the CpG site methylated (ATGGAGGCCTCGCTCAGAAA; DNA, [5mC] at 11, backbone and methylation of C not given here; listed as Homo sapiens)", "values": [{"measurement": "EphB4 knockdown efficiency", "setting": "[1]", "value": "without any loss"}]}, {"substance": "epoetin beta: EPO in the form of epoetin beta, NeoRecormon from Roche", "values": [{"measurement": "patients with increased haemoglobin levels", "setting": "[2]", "value": 82, "unit": "%"}]}, {"substance": "EPH-B4 siRNA: siRNA specific to EPH-B4, sense 5′CAGCCAAUAGCCACUCUAA3′ (SEQ ID NO: 266), antisense 5′UUAGAGUGGCUAUUGGCUG3′ (SEQ ID NO: 267) (listed as RNA, chemistry not given here; listed as Homo sapiens)", "values": [{"measurement": "EPO induced tumor growth", "setting": "HeyA8-MDR cells; siRNA 5 μg 2× week in conjunction with EPO 50 U 3× week", "value": "completely abrogated"}, {"measurement": "tumor growth", "setting": "HeyA8-MDR cells; siRNA alone, 5 μg siRNA 2× week from day eight", "value": "decrease"}]}, {"substance": "CEpo: carbamylated Epo, does not stimulate erythropoiesis (Leist et al.)", "values": [{"measurement": "stimulation of erythropoiesis / haematopoiesis", "setting": "erythropoiesis", "value": "does not stimulate"}, {"measurement": "stimulation of erythropoiesis / haematopoiesis", "setting": "erythropoiesis; listed as carbamylated EPO", "value": "fail to induce haematopoiesis"}, {"measurement": "tissue injury / neuroprotection", "setting": "tissue injury", "value": "prevents"}, {"measurement": "tissue injury / neuroprotection", "setting": "tissue injury; listed as carbamylated EPO", "value": "neuroprotective"}]}]}
